Laboratory results taken from US20080113347A1, “Method for the in Vitro Diagnosis and Prognosis of Demyelinating Diseases, and for the Development of Drugs Against Demyelinating Diseases” (priority 2003, published 2008).
Several values for one entry are separate records, joined by “and”; a condition that tells them apart may be missing. Equal entries are not always repeated.

System: dusp6 gene expression
Test: Real time quantitative RT-PCR of dusp6 expression in primary oligodendrocyte cultures
Type: cell-based, rat
Details: for Experimental dusp6 crossing points (Cp), single replicas: replicas 1 and 2; for Dusp6 overexpression values (Fold Change) with regard to the untreated control, Ratio: standardized to GAPDH
Description: The method used consists of reverse transcription of mRNA to cDNA and its subsequent amplification into a LightCycler equipment (Roche), using SYBR Green for the detection of the amplified product. Real time quantification is carried out, and it allows calculating the relative expression of the sequence in different samples in the linear amplification phase of the reaction.
Samples: Primary oligodendrocyte culture samples treated with AMPA were analyzed. The samples came from cultures different from those analyzed with DNA microarrays. 4 cultures were carried out:
control: untreated cultured oligodendrocytes
ampa 2: oligodendrocytes treated for 2 minutes with 10 μM AMPA and collected after treatment
ampa 10: oligodendrocytes treated for 10 minutes with 10 μM AMPA collected after treatment
ampa 15: oligodendrocytes treated for 15 minutes with 10 μM AMPA and collected 60 minutes later.
Real time quantitative RT-PCR. The total RNA of each one of the cultures was obtained by homogenizing the cells in TRIzol® Reagent (Life Technologies) following the supplier's recommendations. The resulting total RNA was cleaned with the RNeasy kit (QIAGEN) (Chomczynski P. et al., Anal. Biochem., 1987, 162: 156; Chomczynski P., Biotechniques, 1993, 15: 532). The total RNA samples were conserved at −80° C. from the moment they were obtained until they were used. The RNA was spectrophotometrically quantified and 5 μg of total RNA were digested with DNase (2 U/μl) of Ambion at a concentration of 2 U per μg of RNA, for 30 minutes at 37° C.
1 μg of RNA treated with DNAse as a starting material was used for the synthesis of the first cDNA strand with the reverse transcriptase enzyme SuperScript™ II RNase (Life Technologies), using an oligo-dT oligonucleotide as a primer which contained the sequence of the promoter of the phage T7 RNA polymerase. Aliquots of cDNA diluted to the working concentration were used.
Synthesized cDNA was amplified using specific primers of the rat dusp6 gene (SEQ ID NO: 1 and SEQ ID NO: 2), and of the gene encoding the rat protein glyceraldehyde 3-phosphate dehydrogenase, Genebank accession number NM_017008 (SEQ ID NO:21 and SEQ ID NO:22). Real time PCR reactions were prepared using the LightCycler-FastStart DNA master SYBR Green I kit (Roche) following the manufacturer's instructions. The amplification program consisted of […] for 10 min (“hot start”) followed by 45 95° C. cycles (denaturation) for 10 seconds, 60° C. (annealing) for 5 seconds, 72° C. (amplification and fluorescence acquisition) for 10 seconds. The melting curve analysis program consisted of a one-pulse cycle of 95° C., 65° C. for 15 seconds, and a 95° C. pulse during the amplification and acquisition step.
First, specificity of the PCR products was determined by analyzing the melting curves. Subsequently, as a relative measurement of gene expression, the ratio between the abundance of dusp6 transcribed mRNAs and the abundance of GAPDH transcribed mRNAS was calculated, and the data of the ratio was standardized in each one of the treated samples on the basis of control sample values. To calculate efficiency of the PCR reactions (dusp6 and GAPDH), a standard curve was constructed for each gene sequence carried out with cDNA serial dilutions. The template cDNA concentrations for the reactions on the standard curve were arbitrarily given the values 2×, 0.5×, 0.2× and 0.02×. The crossing point values for each one of the reactions were used to construct the standard curve: y=m×+b, where m is the slope and b is the intersection point of the line on the axis of ordinates. Starting RNA concentration values in each sample were obtained from the data of the line using the following formula: […]
The change rate at each point was obtained by dividing the concentration values standardized in comparison to the concentration values in the control.

[1] = 10 μM AMPA 2 minutes, collected after treatment
[2] = 10 μM AMPA 10 minutes, collected after treatment
[3] = 10 μM AMPA 15 minutes, collected 60 minutes later

For `Cc1onc(O)c1CC(N)C(=O)O` (stereo not drawn) [AMPA, α-amino-3-hydroxy-5-methyl-4-isoxazolepropionic acid], the “Experimental dusp6 crossing points (Cp), Mean” value [1] was 30.5, the “Experimental dusp6 crossing points (Cp), single replicas” value [1] was 30.46 and 30.54 and the “Dusp6 overexpression values (Fold Change) with regard to the untreated control, Ratio” value [1] was 1.7 fold. For the same molecule, the “Experimental dusp6 crossing points (Cp), Mean” value [2] was 32.23, the “Experimental dusp6 crossing points (Cp), single replicas” value [2] was 32.15 and 32.31 and the “Dusp6 overexpression values (Fold Change) with regard to the untreated control, Ratio” value [2] was 0.9 fold. For the same molecule, the “Experimental dusp6 crossing points (Cp), Mean” value [3] was 29.67, the “Experimental dusp6 crossing points (Cp), single replicas” value [3] was 29.73 and 29.61 and the “Dusp6 overexpression values (Fold Change) with regard to the untreated control, Ratio” value [3] was 2.7 fold.
